Values after ≈ are worked out from the molar mass of the structure shown. Active and inactive are the calls of the source. No cut-off for these calls is given here.
Experiments:
Aspergillus flavus [1] = assay: Microbiostatic activity against Aspergillus flavus ATCC 10124; format: functional, organism-based
Candida albicans [2] = assay: Microbiostatic activity against Candida albicans ATCC 76615; format: functional, organism-based
Escherichia coli [3] = assay: Microbiostatic activity against Escherichia coli ATCC 25922 after […]; format: functional, organism-based
Pseudomonas aeruginosa [4] = assay: Antimicrobial activity against Pseudomonas aeruginosa ATCC 27853 after 24 hr by two-fold serial dilution method; format: functional; details: ATCC 27853, 24 h
Proteus vulgaris [5] = assay: Antimicrobial activity against Proteus vulgaris ATCC 6896 after 24 hr by two-fold serial dilution method; format: functional; details: ATCC 6896, 24 h
Escherichia coli [6] = assay: Antimicrobial activity against Escherichia coli ATCC 25922 after 24 hr by two-fold serial dilution method; format: functional; details: ATCC 25922, 24 h
Bacillus spizizenii [7] = assay: Antimicrobial activity against Bacillus subtilis subsp. spizizenii ATCC 6633 after 24 hr by two-fold serial dilution method; format: functional; details: ATCC 6633, 24 h
Staphylococcus aureus [8] = assay: Antimicrobial activity against Staphylococcus aureus ATCC 25923 after 24 hr by two-fold serial dilution method; format: functional; details: ATCC 25923, 24 h
Proteus vulgaris [9] = assay: Microbiostatic activity against Proteus vulgaris ATCC 6896 after 24 hr
Staphylococcus aureus [10] = assay: Microbiostatic activity against Staphylococcus aureus ATCC 25923 after 24 hr
Pseudomonas aeruginosa [11] = assay: Microbiostatic activity against Pseudomonas aeruginosa ATCC 27853 after 24 hr
Bacillus spizizenii [12] = assay: Microbiostatic activity against Bacillus subtilis subsp. spizizenii ATCC 6633 after 24 hr
Aspergillus flavus [13] = assay: Antimicrobial activity against Aspergillus flavus ATCC 10124 after 48 hr by two-foldserial dilution method; format: functional; details: ATCC 10124, 48 h
Candida albicans [14] = assay: Antimicrobial activity against Candida albicans ATCC 76615 after 48 hr by two-fold serial dilution method; format: functional; details: ATCC 76615, 48 h

Which results are given for CC(C)(O/N=C(\C(=O)N[C@@H]1C(=O)N2C(C(=O)[O-])=C(C[n+]3ccccc3)CS[C@H]12)c1csc(N)n1)C(=O)O [CEFTAZIDIME]?
Activity (Aspergillus flavus [1]): Active; Activity (Candida albicans [2]): Active; Activity (Escherichia coli [3]): Active; MIC (Pseudomonas aeruginosa [4]): 128 mg/L (≈ 234 µM); MIC (Proteus vulgaris [5]): 4 mg/L (≈ 7.32 µM); MIC (Escherichia coli [6]): 4 mg/L (≈ 7.32 µM); MIC (Bacillus spizizenii [7]): 2 mg/L (≈ 3.66 µM); MIC (Staphylococcus aureus [8]): 4 mg/L (≈ 7.32 µM); Activity (Proteus vulgaris [9]): Active; Activity (Staphylococcus aureus [10]): Active; Activity (Pseudomonas aeruginosa [11]): Active; Activity (Bacillus spizizenii [12]): Active

What does the source list for O=C1COc2c(Cl)cccc2N1C1CCCCC1?
Activity (Aspergillus flavus [1]): Active; Activity (Candida albicans [2]): Active; Activity (Escherichia coli [3]): Active; MIC (Aspergillus flavus [13]): 256 mg/L (≈ 963 µM); MIC (Candida albicans [14]): 128 mg/L (≈ 482 µM); MIC (Pseudomonas aeruginosa [4]): 16 mg/L (≈ 60.2 µM); MIC (Proteus vulgaris [5]): 32 mg/L (≈ 120 µM); MIC (Escherichia coli [6]): 32 mg/L (≈ 120 µM); MIC (Bacillus spizizenii [7]): 32 mg/L (≈ 120 µM); MIC (Staphylococcus aureus [8]): 64 mg/L (≈ 241 µM); Activity (Proteus vulgaris [9]): Active; Activity (Staphylococcus aureus [10]): Active; Activity (Pseudomonas aeruginosa [11]): Active; Activity (Bacillus spizizenii [12]): Active

What does the source list for O=C1COc2cc(Br)ccc2N1Cc1ccccc1?
Activity (Aspergillus flavus [1]): Active; Activity (Candida albicans [2]): Active; Activity (Escherichia coli [3]): Active; MIC (Aspergillus flavus [13]): 128 mg/L (≈ 402 µM); MIC (Candida albicans [14]): 128 mg/L (≈ 402 µM); MIC (Pseudomonas aeruginosa [4]): 16 mg/L (≈ 50.3 µM); MIC (Proteus vulgaris [5]): 32 mg/L (≈ 101 µM); MIC (Escherichia coli [6]): 32 mg/L (≈ 101 µM); MIC (Bacillus spizizenii [7]): 32 mg/L (≈ 101 µM); MIC (Staphylococcus aureus [8]): 32 mg/L (≈ 101 µM); Activity (Proteus vulgaris [9]): Active; Activity (Staphylococcus aureus [10]): Active; Activity (Pseudomonas aeruginosa [11]): Active; Activity (Bacillus spizizenii [12]): Active

For O=C1COc2cc(Br)ccc2N1CC1CCCO1 (stereo unspecified), which Activity (Aspergillus flavus [1]) is on record?
Its Activity is “Active”.

What about the Activity (Candida albicans [2]) of the same molecule?
Its Activity is “Active”.

What about the Activity (Escherichia coli [3]) of the same molecule?
Its Activity is “Active”.

What about the MIC (Candida albicans [14]) of the same molecule?
The MIC was 128 mg/L (≈ 410 µM).

And the MIC (Pseudomonas aeruginosa [4])?
Its MIC is 64 mg/L (≈ 205 µM).

And the MIC (Proteus vulgaris [5])?
Its MIC is 32 mg/L (≈ 103 µM).

What about the MIC (Escherichia coli [6]) of the same molecule?
The MIC was 32 mg/L (≈ 103 µM).

What about the MIC (Bacillus spizizenii [7]) of the same molecule?
The MIC was 32 mg/L (≈ 103 µM).

And the MIC (Staphylococcus aureus [8])?
The MIC was 32 mg/L (≈ 103 µM).

And the Activity (Proteus vulgaris [9])?
Its Activity is “Active”.

What about the Activity (Staphylococcus aureus [10]) of the same molecule?
Its Activity is “Active”.

What about the Activity (Pseudomonas aeruginosa [11]) of the same molecule?
Its Activity is “Active”.

What about the Activity (Bacillus spizizenii [12]) of the same molecule?
Its Activity is “Active”.

Which results are given for O=C1COc2cc(F)ccc2N1C1CCCCC1?
Activity (Aspergillus flavus [1]): Active; Activity (Candida albicans [2]): Active; Activity (Escherichia coli [3]): Active; MIC (Aspergillus flavus [13]): 64 mg/L (≈ 257 µM); MIC (Candida albicans [14]): 256 mg/L (≈ 1030 µM); MIC (Pseudomonas aeruginosa [4]): 16 mg/L (≈ 64.2 µM); MIC (Proteus vulgaris [5]): 16 mg/L (≈ 64.2 µM); MIC (Escherichia coli [6]): 16 mg/L (≈ 64.2 µM); MIC (Bacillus spizizenii [7]): 32 mg/L (≈ 128 µM); MIC (Staphylococcus aureus [8]): 16 mg/L (≈ 64.2 µM); Activity (Proteus vulgaris [9]): Active; Activity (Staphylococcus aureus [10]): Active; Activity (Pseudomonas aeruginosa [11]): Active; Activity (Bacillus spizizenii [12]): Active

Which results are given for O=C1COc2cc(Cl)ccc2N1CC1CCCO1 (stereo unspecified)?
Activity (Aspergillus flavus [1]): Active; Activity (Candida albicans [2]): Active; Activity (Escherichia coli [3]): Active; MIC (Aspergillus flavus [13]): 256 mg/L (≈ 956 µM); MIC (Candida albicans [14]): 128 mg/L (≈ 478 µM); MIC (Pseudomonas aeruginosa [4]): 64 mg/L (≈ 239 µM); MIC (Proteus vulgaris [5]): 32 mg/L (≈ 120 µM); MIC (Escherichia coli [6]): 32 mg/L (≈ 120 µM); MIC (Bacillus spizizenii [7]): 32 mg/L (≈ 120 µM); MIC (Staphylococcus aureus [8]): 32 mg/L (≈ 120 µM); Activity (Proteus vulgaris [9]): Active; Activity (Staphylococcus aureus [10]): Active; Activity (Pseudomonas aeruginosa [11]): Active; Activity (Bacillus spizizenii [12]): Active

CCCCCCN1C(=O)COc2cc(Br)ccc21 was tested. Which Activity (Aspergillus flavus [1]) did it give?
The Activity was “Active”.

What about the Activity (Candida albicans [2]) of the same molecule?
The Activity was “Active”.

And the Activity (Escherichia coli [3])?
Its Activity is “Active”.

And the MIC (Candida albicans [14])?
The MIC was 128 mg/L (≈ 410 µM).

What about the MIC (Pseudomonas aeruginosa [4]) of the same molecule?
Its MIC is 32 mg/L (≈ 102 µM).

What about the MIC (Proteus vulgaris [5]) of the same molecule?
The MIC was 16 mg/L (≈ 51.2 µM).

And the MIC (Escherichia coli [6])?
The MIC was 32 mg/L (≈ 102 µM).

What about the MIC (Bacillus spizizenii [7]) of the same molecule?
Its MIC is 32 mg/L (≈ 102 µM).

And the MIC (Staphylococcus aureus [8])?
Its MIC is 32 mg/L (≈ 102 µM).

And the Activity (Proteus vulgaris [9])?
Its Activity is “Active”.

And the Activity (Staphylococcus aureus [10])?
Its Activity is “Active”.

And the Activity (Pseudomonas aeruginosa [11])?
The Activity was “Active”.

And the Activity (Bacillus spizizenii [12])?
Its Activity is “Active”.

For Clc1ccccc1C(c1ccccc1)(c1ccccc1)n1ccnc1 [CLOTRIMAZOLE], which Activity (Aspergillus flavus [1]) is on record?
The Activity was “Active”.

What about the Activity (Candida albicans [2]) of the same molecule?
Its Activity is “Active”.

And the Activity (Escherichia coli [3])?
Its Activity is “Active”.

What about the MIC (Aspergillus flavus [13]) of the same molecule?
Its MIC is 2 mg/L (≈ 5.8 µM).

What about the MIC (Candida albicans [14]) of the same molecule?
Its MIC is 2 mg/L (≈ 5.8 µM).

What about the MIC (Pseudomonas aeruginosa [4]) of the same molecule?
Its MIC is 512 mg/L (≈ 1480 µM).

What about the MIC (Proteus vulgaris [5]) of the same molecule?
The MIC was 512 mg/L (≈ 1480 µM).

And the MIC (Escherichia coli [6])?
The MIC was 512 mg/L (≈ 1480 µM).

And the MIC (Bacillus spizizenii [7])?
Its MIC is 512 mg/L (≈ 1480 µM).

And the MIC (Staphylococcus aureus [8])?
Its MIC is 512 mg/L (≈ 1480 µM).

And the Activity (Proteus vulgaris [9])?
The Activity was “Active”.

What about the Activity (Staphylococcus aureus [10]) of the same molecule?
The Activity was “Active”.

And the Activity (Pseudomonas aeruginosa [11])?
Its Activity is “Active”.

What about the Activity (Bacillus spizizenii [12]) of the same molecule?
Its Activity is “Active”.

For O=C1COc2cc(F)ccc2N1Cc1ccccc1, which Activity (Aspergillus flavus [1]) is on record?
The Activity was “Active”.

What about the Activity (Candida albicans [2]) of the same molecule?
The Activity was “Active”.

What about the Activity (Escherichia coli [3]) of the same molecule?
The Activity was “Active”.

What about the MIC (Aspergillus flavus [13]) of the same molecule?
Its MIC is 128 mg/L (≈ 498 µM).

What about the MIC (Candida albicans [14]) of the same molecule?
The MIC was 256 mg/L (≈ 995 µM).

What about the MIC (Pseudomonas aeruginosa [4]) of the same molecule?
The MIC was 16 mg/L (≈ 62.2 µM).

What about the MIC (Proteus vulgaris [5]) of the same molecule?
Its MIC is 32 mg/L (≈ 124 µM).

And the MIC (Escherichia coli [6])?
The MIC was 16 mg/L (≈ 62.2 µM).

What about the MIC (Bacillus spizizenii [7]) of the same molecule?
The MIC was 32 mg/L (≈ 124 µM).

And the MIC (Staphylococcus aureus [8])?
Its MIC is 64 mg/L (≈ 249 µM).

And the Activity (Proteus vulgaris [9])?
The Activity was “Active”.

What about the Activity (Staphylococcus aureus [10]) of the same molecule?
The Activity was “Active”.

And the Activity (Pseudomonas aeruginosa [11])?
The Activity was “Active”.

What about the Activity (Bacillus spizizenii [12]) of the same molecule?
The Activity was “Active”.

Which results are given for O=C1COc2cc(Cl)ccc2N1C1CCCCC1?
Activity (Aspergillus flavus [1]): Active; Activity (Candida albicans [2]): Active; Activity (Escherichia coli [3]): Active; MIC (Aspergillus flavus [13]): 128 mg/L (≈ 482 µM); MIC (Candida albicans [14]): 256 mg/L (≈ 963 µM); MIC (Pseudomonas aeruginosa [4]): 32 mg/L (≈ 120 µM); MIC (Proteus vulgaris [5]): 64 mg/L (≈ 241 µM); MIC (Escherichia coli [6]): 32 mg/L (≈ 120 µM); MIC (Bacillus spizizenii [7]): 64 mg/L (≈ 241 µM); MIC (Staphylococcus aureus [8]): 64 mg/L (≈ 241 µM); Activity (Proteus vulgaris [9]): Active; Activity (Staphylococcus aureus [10]): Active; Activity (Pseudomonas aeruginosa [11]): Active; Activity (Bacillus spizizenii [12]): Active
